The results in this text go back to US20130156845A1, “LIPID FORMULATED SINGLE STRANDED RNA” (ALNYLAM PHARMACEUTICALS, INC., priority 2010, published 2013).

Where two headings read alike, the source gives them in different places. Strand notation (5' to 3'): a small letter for the sugar, then the base; units joined by * are phosphorothioate-linked, units joined directly phosphodiester-linked; [ ] holds rarer units or linkages, { } end groups; capitals alone tell only the bases. {PS2} = PS2 group (structure drawn in the publication); {PS} = PS group (structure drawn in the publication); e = 2'-O-(2-methoxyethyl) (MOE); m = 2'-O-methyl; {P} = phosphate; f = 2'-fluoro

One data set deals with human PTEN. The data set is described as follows: PTEN expression in HeLa cells, ssRNAs vs siRNAs (Example 62). The data set is classed as cell-based. As to the method: A series of 5′ and 2′ bis-substituted modified oligomeric compounds were prepared as single strand RNAs (ssRNAs). The antisense (AS) strands listed below were designed to target human PTEN, and each was also assayed as part of a duplex with the same sense strand (ISIS 341401, shown below) for their ability to reduce PTEN expression levels. HeLa cells were treated with the single stranded or double stranded oligomeric compounds created with the antisense compounds shown below using methods described herein. The IC50's were calculated using the linear regression equation generated by plotting the normalized mRNA levels to the log of the concentrations used.

The test system of data set [1] is PTEN. Description: In vivo evaluation of ssRNA formulated in lipid particle LNP06, liver PTEN mRNA (Example 77). Set-up: species or system mouse. To be noted: ssRNA formulated in LNP06, 4.5 mg/kg tail vein, C57BL/6 mice, liver PTEN mRNA normalized to GAPDH, 2 days post injection. The method, then:
In accordance with the present disclosure, oligomeric compounds were synthesized and tested for their ability to reduce PTEN. C57BL/6 mice (Charles River Labs, MA) received either saline or LNP formulated single stranded RNA via tail vein injection at a volume of 0.01 mL/g and the single stranded RNA dose is 4.5 mg/kg. 25 groups of female mice and 9 modified ssRNAs targeting PTEN were formulated in LNP06 and tested. To determine liver mRNA levels of PTEN, 2 days post injection, animals were sacrificed and livers were harvested and snap frozen in liquid nitrogen. Liver lysates were prepared from the frozen tissues and liver mRNA levels of PTEN normalized to GAPDH were quantified using a branched DNA assay (QuantiGene Assay, Panomics, Calif.).

The subject of data set [2] is PTEN. Description: PTEN mRNA reduction in HeLa cells, dose response (Example 72). To be noted: percent inhibition of PTEN mRNA, 0.167-50 nM. It is filed as cell-based, human. As to the method:
In accordance with the present disclosure, oligomeric compounds were synthesized and tested for their ability to reduce PTEN expression over a range of doses. Human HeLa cells were treated with the following oligomeric compounds. A dose comparison was evaluated with dose concentrations of 0.167, 0.5, 1.5, 5, 15 and 50 nM using methods described herein. Expression levels of PTEN were determined using real-time PCR and normalized to RIBOGREEN™ using methods described herein. The percent inhibition of PTEN mRNA was determined and the resulting dose-response curves were used to determine the IC50. The IC50s are listed below.

A short description of data set [3]: ssRNA stability in hepatocyte cell homogenate assay (Example 65). It is filed as in vitro ADME. Particulars: mouse hepatocyte homogenate, LC-MS. As to the method:
Hepatocytes were harvested from bal/c mice in ice-cold hepatocyte wash media (William E Media) with fetal bovine serum, sedimented by centrifugation at 1000 g for 8 minutes and then washed with hepatocyte wash media. Hepatocytes were homogenized with RIPA buffer (50 mM Tris pH 7.5, 10 mM MgCl2, 150 mM NaCl, 0.5% NP-40 alternative, one tablet of Roche protease inhibitor #11836170001), and centrifuged at 14000 g for 15 minutes at 4° C. and the supernatant was removed and stored in ice. Protein concentration (BSA mg/mL) was determined with Bradford assay and adjusted to a final protein concentration of 2 mg/mL by addition of Ripa buffer volume or cell homogenate volume.
[…] were homogenized in a homogenation buffer (20 mM Tris, pH 8, 20 mM EDTA and 0.1 M NaCl in 0.5% NP-40) at time points 0, 5, 10, 20, 30, 40 and 60 minutes (Exception: 06/408877 at time points 0, 15, 30, 60, 120 and 240 mins, 06/409044, at time points 0, 0.5, 1, 2, 4, 8, and 18 hours). An internal standard (18/355868, a 27-mer, 2′-O-methoxyethyl-modified phosphorothioate oligonucleotide, or 19/116847, a 5-10-5 gappmer, 2′-O-methoxyethyl-modified phosphorothioate oligonucleotide) with concentration at 20 ug/g was added prior to extraction. Tissue samples were extracted with 70 μL of NH4OH and 240 μL of phenol/chloroform/isoamyl alcohol (25:24:1). The supernatant was removed after centrifugation at 14000 rpm for 2 min. The remaining extractant was vortexed with an additional […] of water and the aqueous layer was removed and combined with the supernatant after centrifugation at 14000 rpm for 2 minutes.
Triethylammonium acetate solution at 1M ([…]) was added to the supernatant. The aqueous layer of the mixture was loaded onto the pre-conditioned Biotage™ Phenyl Solid Phase Extraction Plate (SPE plate) after centrifugation at 9000 rpm for 20 minutes. The SPE plate was washed several times with water. The sample was then eluted with 1.5 mL of 1% TEA in 90% MeOH and filtered through the Protein Precipitation Plate (Phenomenex™). The elutent was evaporated to dryness and diluted to 200 μL with 50% quenching buffer (8 M urea, 50 mM EDTA) and water before sample injection.
An Agilent 1100 Series LC/MSD system was connected in-line to a mass spectrometry. Mass spectrometer was operated in the electrospray negative ionization mode. The nebulizer nitrogen gas was set at […] and the drying nitrogen gas was set at 12 L/min. The drying temperature was 325° C. Samples (25 μL/well) were introduced via an auto sampler and reversed-phase chromatography was carried out with an XBridge OST C18 2.5 μm 2.1 mm×50 mm HPLC column using a flow rate of 300 μL/min at 55° C. The ion pair buffers consisted of A: 5 mM tributylammonium acetate (TBAA) in 20% acetonitrile and B: […] TBAA in 90% acetonitrile and the loading buffer was 25 mM TBAA in 25% Acetonitrile. Separation was performed on a 30% to 70% B in 9 min and then 80% B in 11 min gradient.
Quantitative analysis of oligonucleotide and internal standard by extracted ion chromatograms of the most abundant ions was performed using MSD ChemStation software. The results are expressed as half-time (T1/2) in the table below.

For data set [4], the system named is PTEN. Description: PTEN mRNA reduction in HeLa cells, dose response (Example 64). It is filed as cell-based, human. To be noted: real-time PCR, 1.56-50 nM. The method, then: A dose response experiment was performed targeting PTEN in human HeLa cells to determine the effects of placement of sugar and internucleoside linkages within ssRNAs. More specifically, the modified ssRNAs were tested for their ability to reduce PTEN mRNA in cultured cells. The modified ssRNAs are shown below, and contain 2′-OMe and 2′-fluoro modified nucleosides, two 2′-O-MOE modified nucleosides at the 3′-terminus, and seven phosphorothioate linkages at the 3′-terminus of the ssRNAs.
HeLa cells were treated with ssRNAs shown below at concentrations of 1.56 nM, 3.13 nM, 6.25 nM, 12.5 nM, […] and 50 nM using methods described herein. Levels of mRNA were determined using real-time PCR methods as described herein. The IC50 for each ssRNA was determined.

Data set [5] has as its system PTEN. Description: Liver PTEN mRNA in Balb/c mice, unformulated oligomeric compounds (Example 70). Particulars: 48 h. It is filed as in vivo, mouse. As to the method: Six-week-old male Balb/c mice (Jackson Laboratory, Bar Harbor, Me.) were injected intraperitenially with a single dose of 75 mg/kg of one of the three oligomeric compounds above or with saline control. Each dose group consisted of four animals. The mice were sacrificed 48 hours following administration. Livers were collected and PTEN mRNA levels were assessed using real-time PCR and RIBOGREEN® RNA quantification reagent (Molecular Probes, Inc. Eugene, Oreg.) according to standard protocols. PTEN mRNA levels were determined relative to total RNA (using Ribogreen), and normalized to the saline-treated control. Results are listed below as the average % inhibition of PTEN mRNA expression for each treatment group, normalized to saline-injected control.

As for “P-TdUfGmUfCmUfCmUfGmGfUmCfCmUfUmAfCmUfUmAeAe (antisense TUGUCUCUGGUCCUUACUUAA; 5'-phosphate, chemical modifications, chemistry not fully specified) [ISIS 435397, modified ssRNA targeting PTEN]”, the EC50 was found to be 0.4 nM in the data set with human PTEN (antisense strand duplexed with sense strand ISIS 341401, PTEN mRNA, read-out: EC50 (nM) siRNA) and 2 nM in the data set on human PTEN (single stranded antisense compound, PTEN mRNA, read-out: EC50 (nM) ssRNA). Moreover, in the data set with PTEN [1], the “% Kd” value is 44%. For the same substance, inhibition with PTEN [2] was half-maximal at 2 nM (IC50).

“P-TmoeUfGmUfCmUfCmUfGmGfUmCfCmUfUmAfCmUfUmAeAe (antisense {P}-eT*fU*mGfU*mCfU*mCfU*mGfG*mUfC*mCfU*mU*fA*mC*fU*mU*eA*eA) [A-53286, modified ssRNA targeting PTEN]”: the “% Kd” value in the data set with PTEN [1] is given as 67%.

As for “P-USSUfGmUfCmUfCmUfGmGfUmCfCmUfUmAfCmUfUmAeAe (antisense TUGUCUCUGGUCCUUACUUAA; 5'-phosphate, 2'-F/2'-OMe, MOE modifications, chemistry not fully specified) [ISIS 467088, modified ssRNA targeting PTEN]”, in the data set with PTEN [1], the “% Kd” value is 50%.

Consider “P-UfUfGfUfCfUfCmUfGmGfUmCfCmUfUmAfCmUfUmTeTe (antisense UUGUCUCUGGUCCUUACUUTT; 5'-phosphate, modified nucleotides, chemistry not fully specified) [ISIS 409049, modified ssRNA targeting PTEN]”, for which the “T1/2 Test 1” value in data set [3] was 13 min. The substance also had an IC50 in the data set with PTEN [4] of 16.2 nM.

With “P-UfUfGfUfCfUmCmUfGfGmUmCfCfUfUfAfCmUmUmAeAe (antisense UUGUCUCUGGUCCUUACUUAA; sugars from the 5' end fffffmmffmmfffffmmmee, 5' {P}, backbone not given here) [ISIS 408874, modified ssRNA targeting PTEN]”, in data set [3], the “T1/2 Test 1” value is given as 22 min and the “T1/2 Test 2” value worked out at 18 min. The substance also yielded an IC50 in the data set on PTEN [4] of 6 nM.

On to “P-UfUfGfUfCfUmCmUfGfGmUmCfCfUfUfAfCmUmUmTeTe (antisense UUGUCUCUGGUCCUUACUUTT; 5'-phosphate, modified nucleotides, chemistry not fully specified) [ISIS 409062, modified ssRNA targeting PTEN]”, for which the “T1/2 Test 1” value in data set [3] was 17 min. Moreover, in the data set on PTEN [4], the IC50 came to 8.6 nM.

On to “P-UmUfGfUfCfUmCmUfGfGmUmCfCfUfUfAfCmUmUmAeAe (antisense UUGUCUCUGGUCCUUACUUAA; sugars from the 5' end mffffmmffmmfffffmmmee, 5' {P}, backbone not given here) [ISIS 408877, modified ssRNA targeting PTEN]”, for which, in data set [3], the “T1/2 Test 1” value stood at 30 min and the “T1/2 Test 2” value turned out to be 24 min. Moreover, in the data set with PTEN [4], the IC50 is 7 nM.

Take “P-UmUfGmUfCmUfCmUfGmGfUmCfCmUfUmAfCmUfUmAeAe (antisense UUGUCUCUGGUCCUUACUUAA; sugars from the 5' end mfmfmfmfmfmfmfmfmfmee, 5' {P}, backbone not given here) [ISIS 409044, modified ssRNA targeting PTEN]”: in data set [3], the “T1/2 Test 1” value came to 240 min and the “T1/2 Test 2” value was 258 min. Further, the IC50 in the data set with PTEN [4] stood at 10.5 nM.

In the case of “PS2-TmoeUfGmUfCmUfCmUfGmGfUmCfCmUfUmAfCmUfUmAeAe (antisense {PS2}-eT*fU*mGfU*mCfU*mCfU*mGfG*mUfC*mCfU*mU*fA*mC*fU*mU*eA*eA) [A-59890, modified ssRNA targeting PTEN]”, the “% Kd” value with PTEN [1] is reported as 31%.

Regarding “PS-TmoeUfGmUfCmUfCmUfGmGfUmCfCmUfUmAfCmUfUmAeAe (antisense {PS}-eT*fU*mGfU*mCfU*mCfU*mGfG*mUfC*mCfU*mU*fA*mC*fU*mU*eA*eA) [A-59889, modified ssRNA targeting PTEN]”, the “% Kd” value in the data set on PTEN [1] was 45%.

As for “UfUfGfUfCfUfCmUfGmGfUmCfCmUfUmAfCmUfUmAeAe (UUGUCUCUGGUCCUUACUUAA; sugars from the 5' end ffffffmfmfmfmfmfmfmee, backbone not given here) [ISIS 407047, modified ssRNA targeting PTEN]”, the “T1/2 Test 1” value in data set [3] was 6 min. The IC50 with PTEN [4] turned out to be 3.5 nM.

On to “^meCeTeGe^meCeTeAG^meC^meCT^meCTGGATeTeTeGeAe [ISIS 116847, reference compound]”, for which the “inhibition of PTEN” value in the data set with PTEN [5] (75 mg/kg, liver) is “potent inhibitor of PTEN”. Besides, the “% inhibition” value in the data set with PTEN [5] (liver PTEN mRNA, single i.p. dose 75 mg/kg, normalized to saline control) is given as 76%.
